Test results as given in patent US10519117B2, “Crystal forms of 6-bromo-3-hydroxy-2-pyrazinecarboxamide” (FUJIFILM Toyama Chemical Co., Ltd., priority 2015, dated 2019).

Tests used:
Type in all cases: physicochemical
[1] = Storage stability of crystals of compound D at 60° C. and 75% relative humidity (Test Example 2), crystal form by infrared absorption spectrum; settings: for change of crystal form on storage (summary in words) / stability on storage (summary in words): up to 8 weeks
Procedure: Type-A crystals, type-B crystals or type-C crystals of compound D were packed in double plastic bags and stored under conditions of 60° C. temperature and 75% relative humidity. Sampling was performed over time, and the crystal form was determined by infrared absorption spectrum measurement.

[2] = Standing of crystals at room temperature
Source text: It is difficult to store type-A crystals of compound D for a long period.
Type-C crystals of compound D can be produced by, for example, leaving type-A crystals of compound D to stand at room temperature.
The standing time may be one week to one year.

[3] = Solubility in organic solvents
Source text: Therefore, compound C is isolated according to any method such as neutralization crystallization in an aqueous solvent.

Row | change of crystal form on storage (summary in words) ([1]; 60° C., 75% relative humidity) | stability on storage (summary in words) ([1]; 60° C., 75% relative humidity) | crystal form after storage ([1]; double plastic bags, 60° C., 75% relative humidity, 8 weeks) | change of crystal form when left to stand [2] | solubility in various organic solvents [3] | storage stability (general statement) [1] | SMILES
1 | not changed | stable | – | – | – | – | NC(=O)c1nc(Br)cnc1O [Type-C crystals, 6-bromo-3-hydroxy-2-pyrazinecarboxamide]
2 | changed to type-C crystals | – | A + C(major) | converted into type-C crystals | – | – | NC(=O)c1nc(Br)cnc1O [Type-A crystals, 6-bromo-3-hydroxy-2-pyrazinecarboxamide]
3 | – | – | – | – | hardly soluble | – | NC(=O)c1nccnc1O [compound C, 3-hydroxy-2-pyrazinecarboxamide]
4 | not changed | stable | – | – | – | excellent in storage stability | NC(=O)c1nc(Br)cnc1O [Type-B crystals, 6-bromo-3-hydroxy-2-pyrazinecarboxamide]
